US9695155B2, “Herbicidal substituted pyrimidinyloxy benzene compounds” (E. I. DU PONT DE NEMOURS AND COMPANY, priority 2013, dated 2017)

Tests used:
morningglory = assay: Test E preemergence; type: in vivo, Ipomoea coccinea; details: for Morningglory plant response rating: scale 0 to 100 (0 no effect, 100 complete control); for Plant response rating, Morningglory: scale 0 to 100, 0 no effect, 100 complete control
Procedure, shortened: (§1)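 Test chemicals formulated in a non-phytotoxic solvent mixture containing a surfactant were applied preemergence to seeds in silt loam soil or postemergence to plants at the 1- to 4-leaf stage in potting mix. After 14 to 21 days in a greenhouse, injury was visually rated against controls on a 0-100 scale (0 = no effect, 100 = complete control).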

dayflower [1] = assay: Test E postemergence; type: in vivo, Commelina virginica
Procedure, shortened: as §1

barnyardgrass = assay: Test E preemergence; type: in vivo, Echinochloa crus-galli; details: preemergence; for Barnyardgrass plant response rating: scale 0 to 100 (0 no effect, 100 complete control); for Plant response rating, Barnyardgrass: scale 0 to 100, 0 no effect, 100 complete control
Procedure, shortened: as §1

large (Lg) crabgrass = assay: Test E preemergence; type: in vivo, Digitaria sanguinalis; details: for Crabgrass, Large plant response rating: scale 0 to 100 (0 no effect, 100 complete control); for Plant response rating, Crabgrass, Large: scale 0 to 100, 0 no effect, 100 complete control
Procedure, shortened: as §1

arrowleaf sida [2] = assay: Test E preemergence; type: in vivo, Sida rhombifolia; details: preemergence; for Arrowleaf Sida plant response rating: scale 0 to 100 (0 no effect, 100 complete control); for Plant response rating, Arrowleaf Sida: scale 0 to 100, 0 no effect, 100 complete control
Procedure, shortened: as §1

palmer pigweed = assay: Test E preemergence; type: in vivo, Amaranthus palmeri; details: for Pigweed, Palmer plant response rating: scale 0 to 100 (0 no effect, 100 complete control); for Plant response rating, Pigweed, Palmer: scale 0 to 100, 0 no effect, 100 complete control
Procedure, shortened: as §1

Italian ryegrass = assay: Test E postemergence; type: in vivo, Lolium multiflorum
Procedure, shortened: as §1

sedge, umbrella = assay: Test C flooded paddy test; type: in vivo, Cyperus difformis; details: Flood, scale 0 to 100 (0 no effect, 100 complete control), 13 to 15 days
Procedure, shortened: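 In-water treatment: compound dosed into 3 cm flood over soil, water level unchanged throughout. Controls run alongside; visual assessment at day 13–15.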

soybean = assay: Test E postemergence; type: in vivo, Glycine max
Procedure, shortened: as §1

hairy beggarticks = assay: Test E postemergence; type: in vivo, Bidens pilosa
Procedure, shortened: as §1

wild poinsettia = assay: Test E postemergence; type: in vivo, Euphorbia heterophylla
Procedure, shortened: as §1

ragweed = assay: Test E preemergence; type: in vivo, Ambrosia elatior; details: for Ragweed plant response rating: scale 0 to 100 (0 no effect, 100 complete control); for Plant response rating, Ragweed: scale 0 to 100, 0 no effect, 100 complete control
Procedure, shortened: as §1

field bindweed [3] = assay: Test E postemergence; type: in vivo, Convolvulus arvensis
Procedure, shortened: as §1

fall panicum = assay: Test E preemergence; type: in vivo, Panicum dichotomiflorum; details: for Panicum, Fall plant response rating: scale 0 to 100 (0 no effect, 100 complete control); for Plant response rating, Panicum, Fall: scale 0 to 100, 0 no effect, 100 complete control
Procedure, shortened: as §1

arrowleaf sida [4] = assay: Test E postemergence; type: in vivo, Sida rhombifolia
Procedure, shortened: as §1

field bindweed [5] = assay: Test E preemergence; type: in vivo, Convolvulus arvensis; details: for Field Bindweed plant response rating: scale 0 to 100 (0 no effect, 100 complete control); for Plant response rating, Field Bindweed: scale 0 to 100, 0 no effect, 100 complete control
Procedure, shortened: as §1

goosegrass = assay: Test E preemergence; type: in vivo, Eleusine indica; details: for Goosegrass plant response rating: scale 0 to 100 (0 no effect, 100 complete control); for Plant response rating, Goosegrass: scale 0 to 100, 0 no effect, 100 complete control
Procedure, shortened: as §1

dayflower [6] = assay: Test E preemergence; type: in vivo, Commelina virginica; details: for Dayflower, VA plant response rating: scale 0 to 100 (0 no effect, 100 complete control); for Plant response rating, Dayflower, VA: scale 0 to 100, 0 no effect, 100 complete control
Procedure, shortened: as §1

[7] = Postemergence, 31 g ai/ha, scale 0 to 100
[8] = Postemergence, 62 g ai/ha, scale 0 to 100
[9] = Postemergence, 125 g ai/ha, scale 0 to 100
[10] = Postemergence, 250 g ai/ha, scale 0 to 100
[11] = postemergence, 16 g ai/ha, scale 0 to 100, 0 no effect, 100 complete control

N#Cc1cnn(-c2c(C#N)cccc2Oc2ncc(Cl)cn2)c1 [Compound 200]
Morningglory plant response rating (morningglory; 31 g ai/ha): 20
Morningglory plant response rating (morningglory; 62 g ai/ha): 50
Plant response rating, Morningglory (morningglory; 125 g ai/ha): 90
Plant response rating, Morningglory (morningglory; 250 g ai/ha): 98
Plant response rating, Dayflower, VA (dayflower [1]; [7]): 25
Plant response rating, Dayflower, VA (dayflower [1]; [8]): 40
Plant response rating, Dayflower, VA (dayflower [1]; [9]): 60
Plant response rating, Dayflower, VA (dayflower [1]; [10]): 70
Plant response rating, Dayflower, VA (dayflower [1]; [11]): 15
Barnyardgrass plant response rating (barnyardgrass; 16 g ai/ha): 0
Barnyardgrass plant response rating (barnyardgrass; 31 g ai/ha): 0
Barnyardgrass plant response rating (barnyardgrass; 62 g ai/ha): 10
Plant response rating, Barnyardgrass (barnyardgrass; 125 g ai/ha): 60
Plant response rating, Barnyardgrass (barnyardgrass; 250 g ai/ha): 95
Crabgrass, Large plant response rating (large (Lg) crabgrass; 16 g ai/ha): 5
Crabgrass, Large plant response rating (large (Lg) crabgrass; 31 g ai/ha): 35
Crabgrass, Large plant response rating (large (Lg) crabgrass; 62 g ai/ha): 65
Plant response rating, Crabgrass, Large (large (Lg) crabgrass; 125 g ai/ha): 80
Plant response rating, Crabgrass, Large (large (Lg) crabgrass; 250 g ai/ha): 100
Arrowleaf Sida plant response rating (arrowleaf sida [2]; 16 g ai/ha): 20
Arrowleaf Sida plant response rating (arrowleaf sida [2]; 31 g ai/ha): 20
Arrowleaf Sida plant response rating (arrowleaf sida [2]; 62 g ai/ha): 70
Plant response rating, Arrowleaf Sida (arrowleaf sida [2]; 125 g ai/ha): 100
Plant response rating, Arrowleaf Sida (arrowleaf sida [2]; 250 g ai/ha): 100
Pigweed, Palmer plant response rating (palmer pigweed; 31 g ai/ha): 40
Pigweed, Palmer plant response rating (palmer pigweed; 62 g ai/ha): 100
Plant response rating, Pigweed, Palmer (palmer pigweed; 125 g ai/ha): 100
Plant response rating, Pigweed, Palmer (palmer pigweed; 250 g ai/ha): 100
Plant response rating, Ryegrass, Italian (Italian ryegrass; [7]): 0
Plant response rating, Ryegrass, Italian (Italian ryegrass; [8]): 0
Plant response rating, Ryegrass, Italian (Italian ryegrass; [9]): 0
Plant response rating, Ryegrass, Italian (Italian ryegrass; [10]): 0
Plant response rating, Ryegrass, Italian (Italian ryegrass; [11]): 0
Plant response rating, Sedge, Umbrella (sedge, umbrella; 31 g ai/ha): 0
Plant response rating, Sedge, Umbrella (sedge, umbrella; 62 g ai/ha): 80
Plant response rating, Sedge, Umbrella (sedge, umbrella; 125 g ai/ha): 90
Plant response rating, Sedge, Umbrella (sedge, umbrella; 250 g ai/ha): 90
Plant response rating, Soybean (soybean; [7]): 95
Plant response rating, Soybean (soybean; [8]): 95
Plant response rating, Soybean (soybean; [9]): 95
Plant response rating, Soybean (soybean; [10]): 98
Plant response rating, Soybean (soybean; [11]): 95
Plant response rating, Beggarticks (hairy beggarticks; [7]): 60
Plant response rating, Beggarticks (hairy beggarticks; [8]): 70
Plant response rating, Beggarticks (hairy beggarticks; [9]): 90
Plant response rating, Beggarticks (hairy beggarticks; [10]): 95
Plant response rating, Beggarticks (hairy beggarticks; [11]): 50
Plant response rating, Poinsettia, Wild (wild poinsettia; [7]): 80
Plant response rating, Poinsettia, Wild (wild poinsettia; [8]): 70
Plant response rating, Poinsettia, Wild (wild poinsettia; [9]): 90
Plant response rating, Poinsettia, Wild (wild poinsettia; [10]): 90
Plant response rating, Poinsettia, Wild (wild poinsettia; [11]): 50
Ragweed plant response rating (ragweed; 31 g ai/ha): 0
Ragweed plant response rating (ragweed; 62 g ai/ha): 80
Plant response rating, Ragweed (ragweed; 125 g ai/ha): 80
Plant response rating, Ragweed (ragweed; 250 g ai/ha): 95
Plant response rating, Field Bindweed (field bindweed [3]; [7]): 70
Plant response rating, Field Bindweed (field bindweed [3]; [8]): 90
Plant response rating, Field Bindweed (field bindweed [3]; [9]): 95
Plant response rating, Field Bindweed (field bindweed [3]; [10]): 95
Plant response rating, Field Bindweed (field bindweed [3]; [11]): 70
Panicum, Fall plant response rating (fall panicum; 31 g ai/ha): 75
Panicum, Fall plant response rating (fall panicum; 62 g ai/ha): 95
Plant response rating, Panicum, Fall (fall panicum; 125 g ai/ha): 100
Plant response rating, Panicum, Fall (fall panicum; 250 g ai/ha): 100
Plant response rating, Arrowleaf Sida (arrowleaf sida [4]; [7]): 80
Plant response rating, Arrowleaf Sida (arrowleaf sida [4]; [8]): 80
Plant response rating, Arrowleaf Sida (arrowleaf sida [4]; [9]): 90
Plant response rating, Arrowleaf Sida (arrowleaf sida [4]; [10]): 98
Plant response rating, Arrowleaf Sida (arrowleaf sida [4]; [11]): 60
Field Bindweed plant response rating (field bindweed [5]; 16 g ai/ha): 5
Field Bindweed plant response rating (field bindweed [5]; 31 g ai/ha): 10
Field Bindweed plant response rating (field bindweed [5]; 62 g ai/ha): 40
Plant response rating, Field Bindweed (field bindweed [5]; 125 g ai/ha): 70
Plant response rating, Field Bindweed (field bindweed [5]; 250 g ai/ha): 95
Goosegrass plant response rating (goosegrass; 31 g ai/ha): 5
Goosegrass plant response rating (goosegrass; 62 g ai/ha): 60
Plant response rating, Goosegrass (goosegrass; 125 g ai/ha): 80
Plant response rating, Goosegrass (goosegrass; 250 g ai/ha): 90
Dayflower, VA plant response rating (dayflower [6]; 16 g ai/ha): 0
Dayflower, VA plant response rating (dayflower [6]; 31 g ai/ha): 35
Dayflower, VA plant response rating (dayflower [6]; 62 g ai/ha): 65
Plant response rating, Dayflower, VA (dayflower [6]; 125 g ai/ha): 65
Plant response rating, Dayflower, VA (dayflower [6]; 250 g ai/ha): 85
